In ChEMBL document CHEMBL5506073, “Discovery of Novel Ortho-Aminophenol Derivatives Targeting Lipid Peroxidation with Potent Antiferroptotic Activities” (J Med Chem, 2024):
Calls of active or inactive are those of the source. The rule behind the calls is not given here.

Key:
HT-1080 [1] = experiment: Inhibition of RSL3-induced ferroptosis in human HT-1080 cells assessed as cell viability incubated for 24 hrs by CCK8 assay; format: functional, cell-based; details: for EC50: HT-1080, 24 h
[2] = Antioxidant activity assessed as DPPH radical scavenging activity at 10 uM incubated for 30 mins by absorbance based assay; format: functional
HT-1080 [3] = experiment: Inhibition of RSL3-induced ferroptosis in human HT-1080 cells assessed as cell viability at 0.5 uM incubated for 24 hrs by CCK8 assay; format: functional, cell-based

Compound	EC50 (HT-1080 [1]) [nM]	also measured
CCCCOC(=O)c1cccc(O)c1N	385	Activity [2]: Active; inhibition (HT-1080 [3]): Active
CCCOC(=O)c1cccc(O)c1N	302	Activity [2]: Active; inhibition (HT-1080 [3]): Active
COC(=O)c1cccc(O)c1N	526	inhibition (HT-1080 [1]): Dose-Dependent Effect
Nc1c(O)cccc1-c1nc2cc(Cl)c(Cl)cc2[nH]1	293	–
Nc1c(O)cccc1C(=O)N/N=C/c1ccccc1	274	–
Cc1ccc(/C=N/NC(=O)c2cccc(O)c2N)cc1	2620	–
COc1ccc(CSc2nnc(-c3cccc(O)c3N)o2)cc1	177	–
Nc1c(O)cccc1C(=O)N/N=C/c1ccccn1	191	–
Nc1c(O)cccc1C(=O)N/N=C/c1ccc[nH]1	343	–
CSc1nnc(-c2cccc(O)c2N)o1	99.2	–
Nc1c(O)cccc1-c1nnc(S)o1	366	–
N#Cc1ccc(CSc2nnc(-c3cccc(O)c3N)o2)cc1	528	–
Nc1c(O)cccc1-c1nc2ccccc2[nH]1	263	–
NNC(=O)c1cccc(O)c1N	> 1000	–
